Test results taken from EP2666869A1 (priority 2012, dated 2013).
Several values for one entry are separate records, joined by “and”; a condition that tells them apart may be missing. Identical values can stand only once. Like-named read-outs stand apart in the source and are kept apart here.

Key:
[1] = Sorafenib pharmacokinetic analysis (plasma concentrations, Bayesian estimation of AUC and Cav); type: in vivo, human; conditions: for AUC at 720 h: Cumulated sorafenib AUC, day 0 to day 30; for AUC tau at 720 h: day 30
Source text: (§1) Adverse events were reported and graded according to the National Cancer Institute Common Terminology Criteria (NCI-CTCAE) on days 15 and 30 after treatment initiation. Diarrhea and HFSR were graded according to the NCI-CTCAE 3.0 version, while hypertension was retrospectively graded according to the 4.0 version. In case of grade 4 hematological toxicity or grade 3 or 4 non-hematological toxicity, treatment was discontinued until side effects recovered to grade 1, or returned to baseline. Subsequent dose reductions were left at the discretion of the treating physician.
This Bayesian estimator is based on a 1-compartment model with saturated absorption, first-order intestinal loss and linear elimination.
For descriptive statistics, qualitative variables were expressed in numbers and percentages and quantitative ones in medians [inter-quartile intervals]. Glomerular filtration rate (GFR) and lean body mass (LBM) were estimated using the Modification of the Diet in Renal Disease (MDRD) formula and the Green's formula, respectively. […] Then, the relationships between the dose-standardized AUC and other variables were tested using two-sample Wilcoxon tests or Kruskal-Wallis tests for qualitative variables with two modalities or more than two modalities, respectively, and by Spearman rank correlation coefficient tests for quantitative ones. The following variables were tested: age, gender, ECOG status, weight, body mass index (BMI), LBM, primary tumor site, polymorphisms of CYP3A5 (rs776746), UGT1A9 (rsl78868320, rs6714486, rs72551330), ABCB1 (rs2231137, rs1045642), ABCG2 (rs2231137, rs2231142, rs2622604), alanine aminotransferase (ALT), aspartate aminotransferase (AST), alkaline phosphatase (ALP), gamma-glutamyl transpeptidase (GGT), bilirubin, albumin, C-Reactive Protein, creatinine and MDRD GFR. A stepwise multiple linear regression was then performed with variables significant with p < 0.10 in the first step included in the regression and variables significant with p < 0.05 kept in the final model. […] The cumulated AUC between day 0 and day 30 was calculated as the sum of two areas, (0-15 days) and (15-30 days) which were estimated using the trapezoidal rule. The area was multiplied by 24 to express the result in mg/L.h. […] On day 0, Cav0 was fixed at 0 mg/L.

[2] = Toxicity assessment (NCI-CTCAE grading) and risk factor analysis in the first month of sorafenib treatment; type: in vivo, human
Source text: as §1
For descriptive statistics, qualitative variables were expressed in numbers and percentages and quantitative ones in medians [inter-quartile intervals]. Glomerular filtration rate (GFR) and lean body mass (LBM) were estimated using the Modification of the Diet in Renal Disease (MDRD) formula and the Green's formula, respectively. […] Then, the relationships between the dose-standardized AUC and other variables were tested using two-sample Wilcoxon tests or Kruskal-Wallis tests for qualitative variables with two modalities or more than two modalities, respectively, and by Spearman rank correlation coefficient tests for quantitative ones. The following variables were tested: age, gender, ECOG status, weight, body mass index (BMI), LBM, primary tumor site, polymorphisms of CYP3A5 (rs776746), UGT1A9 (rsl78868320, rs6714486, rs72551330), ABCB1 (rs2231137, rs1045642), ABCG2 (rs2231137, rs2231142, rs2622604), alanine aminotransferase (ALT), aspartate aminotransferase (AST), alkaline phosphatase (ALP), gamma-glutamyl transpeptidase (GGT), bilirubin, albumin, C-Reactive Protein, creatinine and MDRD GFR. A stepwise multiple linear regression was then performed with variables significant with p < 0.10 in the first step included in the regression and variables significant with p < 0.05 kept in the final model. For the analysis of sorafenib-induced toxicities in the first month of treatment, we used dichotomous end points expressed as any toxicity ≥ grade 3 (yes or no), or grade ≥ 2 HFSR (yes or no), or grade ≥ 2 diarrhea (yes or no), or grade ≥ 2 hypertension (yes or no). The cumulated AUC between day 0 and day 30 was calculated as the sum of two areas, (0-15 days) and (15-30 days) which were estimated using the trapezoidal rule. The area was multiplied by 24 to express the result in mg/L.h. […] On day 0, Cav0 was fixed at 0 mg/L.
The univariate analysis of toxicity risk factors was carried out using two sample Wilcoxon tests for quantitative variables and Chi square or Fisher exact tests for qualitative ones. Fisher exact tests were performed as soon as at least one expected value was lower than 5. […] The multivariate analysis was performed by a stepwise logistic regression. Variables with p-values < 0.10 in the univariate analysis were included in the regression and variables with a Wald test p-value < 0.05 were kept in the final model. All the tests were two-sided, and they were considered significant when p-values were < 0.05. The receiver operating characteristic (ROC) curve was constructed to examine the value of an AUCcum threshold predicting a toxicity of grade ≥ 3 in the first month of treatment. The diagnostic accuracy values of sensitivity and specificity were determined, as well as the positive predictive value (PPV) and the negative predictive value (NPV). Computations were performed using the SAS V9 statistical package (SAS institute, Cary, NC).

[3] = AUCcum threshold value of 3,161 mg/L.h, toxicity of grade ≥ 3

SMILES: CNC(=O)c1cc(Oc2ccc(NC(=O)Nc3ccc(Cl)c(C(F)(F)F)c3)cc2)ccn1 [sorafenib]
- Spearman's coefficient (rho) ([1]; dose-normalized AUC day 15 versus Creatinine (µmol/L)): -0.26
- Spearman's coefficient (rho) ([1]; dose-normalized AUC day 15 versus LBM (kg)): -0.28
- AUC at 720 h ([1]; human, plasma, patients with Hand Foot Skin Reaction ≥ grade 2, median [interquartile range]): 3310 µg·h/mL
- AUC at 720 h ([1]; human, plasma, patients with any toxicity ≥ grade 3, median [interquartile range]): 3500 µg·h/mL
- AUC at 720 h ([1]; human, plasma, patients without Hand Foot Skin Reaction ≥ grade 2, median [interquartile range]): 2250 µg·h/mL
- AUC at 720 h ([1]; human, plasma, patients without any toxicity ≥ grade 3, median [interquartile range]): 2250 µg·h/mL
- AUC tau at 360 h ([1]; human, plasma, day 15, females, read-out: median absolute AUC): 78.3 µg·h/mL
- AUC tau at 360 h ([1]; human, plasma, day 15, males, read-out: median absolute AUC): 52.4 µg·h/mL
- AUC tau at 720 h ([1]; human, plasma, females, read-out: median absolute AUC): 82.2 µg·h/mL
- AUC tau at 720 h ([1]; human, plasma, males, read-out: median absolute AUC): 55.2 µg·h/mL
- AUC tau at 12 h ([1]; human, plasma, median absolute sorafenib AUC, day 15, all patients, AUC 0 to 12 hours, median [interquartile range]): 62 µg·h/mL
- AUC tau at 720 h ([1]; human, plasma, median absolute sorafenib AUC, all patients, median [interquartile range]): 61 µg·h/mL
- NPV [2, 3]: 63.3%
- PPV [2, 3]: 75.8%
- area under the ROC curve for the AUCcum threshold ([2]; CI 95%, 61-78%): 69%
- Any toxicity ≥ grade 3: No ([2]; CYP3A5 6986 A>G AA (*1/*1)): 0 (0) n (%)
- Any toxicity ≥ grade 3: Yes ([2]; CYP3A5 6986 A>G AA (*1/*1)): 4 (100) n (%)
- Any toxicity ≥ grade 3: No ([2]; CYP3A5 6986 A>G AG (*1/*3)): 6 (67) n (%)
- Any toxicity ≥ grade 3: Yes ([2]; CYP3A5 6986 A>G AG (*1/*3)): 3 (33) n (%)
- Any toxicity ≥ grade 3: No ([2]; CYP3A5 6986 A>G GG (*3/*3)): 24 (63) n (%)
- Any toxicity ≥ grade 3: Yes ([2]; CYP3A5 6986 A>G GG (*3/*3)): 14 (37) n (%)
- Any toxicity ≥ grade 3: No ([2]; Female): 5 (33.3) n (%)
- Any toxicity ≥ grade 3: Yes ([2]; Female): 10 (66.7) n (%)
- Hand Foot Skin Reaction ≥ grade 2: No ([2]; Female): 5 (33.3) n (%)
- Hand Foot Skin Reaction ≥ grade 2: Yes ([2]; Female): 10 (66.7) n (%)
- Any toxicity ≥ grade 3: No ([2]; Male): 25 (67.6) n (%)
- Any toxicity ≥ grade 3: Yes ([2]; Male): 12 (32.4) n (%)
- Hand Foot Skin Reaction ≥ grade 2: No ([2]; Male): 25 (52.0) n (%)
- Hand Foot Skin Reaction ≥ grade 2: Yes ([2]; Male): 12 (48.0) n (%)
- Occurrence during first month of treatment: Diarrhea ([2]; No): 37 (69) n (%)
- Occurrence during first month of treatment: Hypertension ([2]; No): 28 (52) n (%)
- Occurrence during first month of treatment: Hand-foot skin reaction ([2]; No, 54 patients): 17 (31) n (%)
- AUCcum threshold predicting a toxicity of grade ≥ 3 ([2]; ROC curve, first month of treatment): 3,161 mg/L.h
- Diarrhea ≥ grade 2: No ([2]; UGT1A9 -275 T>A m/m): 0 (0) n (%)
- Diarrhea ≥ grade 2: Yes ([2]; UGT1A9 -275 T>A m/m): 0 (0) n (%)
- Diarrhea ≥ grade 2: No ([2]; UGT1A9 -275 T>A wt/m): 2 (50) n (%)
- Diarrhea ≥ grade 2: Yes ([2]; UGT1A9 -275 T>A wt/m): 2 (50) n (%)
- Diarrhea ≥ grade 2: No ([2]; UGT1A9 -275 T>A wt/wt): 43 (93) n (%)
- Diarrhea ≥ grade 2: Yes ([2]; UGT1A9 -275 T>A wt/wt): 3 (7) n (%)
- Diarrhea ≥ grade 2: No ([2]; UGT1A9 -2152 C>T m/m): 0 (0) n (%)
- Diarrhea ≥ grade 2: Yes ([2]; UGT1A9 -2152 C>T m/m): 0 (0) n (%)
- Diarrhea ≥ grade 2: No ([2]; UGT1A9 -2152 C>T wt/m): 2 (50) n (%)
- Diarrhea ≥ grade 2: Yes ([2]; UGT1A9 -2152 C>T wt/m): 2 (50) n (%)
- Diarrhea ≥ grade 2: No ([2]; UGT1A9 -2152 C>T wt/wt): 42 (93) n (%)
- Diarrhea ≥ grade 2: Yes ([2]; UGT1A9 -2152 C>T wt/wt): 3 (7) n (%)
- Occurrence during first month of treatment: Diarrhea ([2]; Yes): 17 (31) n (%)
- Occurrence during first month of treatment: Hypertension ([2]; Yes): 25 (46) n (%)
- Occurrence during first month of treatment: Hand-foot skin reaction ([2]; Yes, 54 patients): 37 (69) n (%)
- Occurrence during first month of treatment: Diarrhea ([2]; grade < 2): 12 n (%)
- Occurrence during first month of treatment: Hand-foot skin reaction ([2]; grade < 2): 15 n (%)
- Occurrence during first month of treatment: Hypertension ([2]; grade < 2): 5 n (%)
- Occurrence during first month of treatment: Diarrhea ([2]; grade ≥ 2 (grade 2-3)): 5 (9%) n (%) and 5 n (%)
- Occurrence during first month of treatment: Hand-foot skin reaction ([2]; grade ≥ 2 (grade 2-3)): 22 (41%) n (%) and 22 n (%)
- Occurrence during first month of treatment: Hypertension ([2]; grade ≥ 2 (grade 2-3)): 20 (38%) n (%) and 20 n (%)
- grade 3 or 4 toxicity: diarrhea ([2]; on days 15 or 30, 5% of the 22 patients with grade 3 or 4 toxicity): 1 n
- grade 3 or 4 toxicity: hypertension ([2]; on days 15 or 30, 27% of the 22 patients with grade 3 or 4 toxicity): 6 n
- grade 3 or 4 toxicity: HFSR ([2]; on days 15 or 30, 68% of the 22 patients with grade 3 or 4 toxicity): 15 n
- patients who experienced grade 3 or 4 toxicity ([2]; on days 15 or 30, twenty-two of 54 patients): 41%
- patients who required dose reductions because of toxic effects ([2]; over the study period): 9 n
- patients who required interruption of treatment because of toxic effects ([2]; over the study period): 10 n
- patients who required dose reductions or interruption of treatment because of toxic effects ([2]; over the study period, nineteen patients): 35%
- toxic death in relation with sorafenib ([2]; study period): no toxic death
